Source: patent US20220411422A1, “ERBB RECEPTOR INHIBITORS” (Dizal (Jiangsu) Pharmaceutical Co., Ltd., priority 2018, published 2022)
Entries after “also recorded” stand apart in the source; their conditions may differ.

Assays:
[1] = Blood brain barrier penetration assay in monkeys; format: in vivo; conditions: CSF, oral; Table 5; monkey
Description: In vitro blood, plasma and brain binding assay was carried out with equilibrium dialysis device. Diluted blood (1:1 with DPBS pH7.4), EDTA-anticoagulated plasma, and brain homogenate (1:3 with DPBS pH7.4) were spiked with 5 μM test compound (in triplicate) and dialyzed against equal volume of 150 μL 100 mM PBS buffer (pH7.4) at 37° C. for appropriate equilibration time in a slowly rotated plate. At the end of incubation, a 50 μL aliquot from the receiver side and a 5 μL from the donor chamber were taken. The 5 μL sample was further diluted with 45 μL of blank blood, plasma or brain homogenate. […] After centrifuging at 4000 rpm for 20 min, supernatant was diluted with 0.1% formic acid aqueous solution and analyzed for LC/MS/MS (API 4000, Applied Biosystems, Foster City). Unbound fraction (fu) of test compound were calculated by the ratio of the buffer side response to the brain homogenate/plasma/blood side response, and unbound fraction (fu,bl, fu,pl and fu,br) of test compound in non-diluted blood and tissue were calculated from measured fu in homogenate and diluted blood with the following equation: fu,bl (fu,br)=(1/D)/[(1/fu−1)+1/D)]. […]
Total brain levels, expressed as brain/blood ratio (Kp,brain) were measured by AUC(brain)/AUC(blood or plasma) in rodents after oral administration. […]
Kp,uu brain and Kp,uu CSF was calculated by the following equation: […]

pHER2 in tumor tissue = target: T1, pHER2 in tumor tissue (Homo sapiens, UniProt P04626); assay: PK/PD relationship in BT474cl SC model; format: in vivo, mouse
T1 construct: The SC, BM and LM models with HER2 overexpression; from tissue; host or cells: BT474cl subcutaneous xenograft tumour in mice
Description: The SC, BM and LM models with HER2 overexpression were treated with the Compound 6 at dosages of 25 mg/kg, 50 mg/kg, 100 mg/kg and 150 mg/kg. […] Moreover, the Compound 6 at dosages of 6.25 mg/kg, Capecitabine (400 mg/kg), T-DM1 (15 mg/kg), Compound 6 (6.25 mg/kg) in combination with Capecitabine (400 mg/kg) or T-DM1 (15 mg/kg) were used to treat the SC, and BM models with HER2 overexpression to check the tumor regression effect of Compound 6 in combination with other anti-cancer agent. […] Moreover, the PK and PD of Compound 6 in BT474cl SC model were tested.

[2] = system: BT474 SC, BM and LM xenograft models; assay: In vivo anti-tumor potency in SC, BM and LM xenograft mouse models
pHER2 = target: T2, pHER2 (Homo sapiens, UniProt P04626); assay: pHER2 cellular activity in BT474c1 cell line; format: cell-based
T2 construct: pHER2 in cells expressing HER2; endogenous in cells; host or cells: BT474c1
Description: (§1) A compound's activity of selective inhibition for HER2 wild type amplification can be evaluated with BT474 cell line (ATCC® HTB-20™). The cell line expressed phosphorylated HER2 protein and its proliferation depended on the amplified gene, which could be used for in vitro PD and anti-proliferation assays.
The compounds' inhibition of target modulation were determined as follows: BT474 cells were sorted in 96 well plates (20000 cells/well) with the DMEM medium containing 10% FBS overnight and then treated with tested compounds at a series of concentrations (3 μM, 0.3 μM, 0.1 μM, 0.03 μM, 0.01 μM, 0.003 μM, 0.001 μM, 0.0001 μM). The plates were incubated for 4 h at 37° C. with 5% CO2 and then the HER2 (Y1248) phosphorylation level of cells in each well were measured with MSD Kit (Phospho-ErbB2 (Tyr1248) Assay Whole Cell Lysate Kit: Cat #K151CLD-3). The assay is a electrochemiluminescent method (MESO SCALE DISCOVERY) for determining both phosphorylated and total HER2 of cells with an MSD SECTOR® Imager and then the ratio of p-HER2/total HER2 can be generated by the machine. The percentage of inhibition was got from formula: % inhibition=100×[1−(ratio of sample well−ratio of Min ctrl well)/(ratio of Max−Ratio of Min ctrl well)]. The IC50 values were further calculated as the compounds concentration required for 50% inhibition in best-fit curves using Prism GraphPad 7.0 or Microsoft Xlfit software.

BT474 cells = assay: BT474 anti-proliferation assay, MTS; format: cell-based; conditions: Homo sapiens, BT-474, 72 h, read-out: HER2WT Amplification BT474 GI50
Description: as §1
The anti-proliferation activity of compounds were determined as following procedure: The BT474 cells were sorted in 384 well plates with the DMEM medium containing 10% FBS and […] overnight and then dosed with tested compounds at a series of concentrations (30 μM, 10 μM, 3 μM, 1 μM, 0.3 μM, 0.1 μM, 0.03 μM, 0.01 μM, 0.001 μM) on next day. Meanwhile, another cells plate was prepared for measuring G0 value on next day. The dosed plates were incubate for 72 h at 37° C. with 5% CO2 and the number of viable cells in each well of G0 or dosed plates were measured by MTS (CellTiter 96® AQueous One Solution Cell Proliferation Assay, Promega) endpoint. This assay is a colorimetric method for determining the number viable cells in the proliferation assay. Detection reagents (5 μl) was dispensed into per well, and the plates were incubated for 2 hrs at room temperature. Then, absorbance at 490 nm and 650 nm (reference wavelength) in each well was measured using the safile II. (Tecan). […]

T2 sequence (P04626 23-1255): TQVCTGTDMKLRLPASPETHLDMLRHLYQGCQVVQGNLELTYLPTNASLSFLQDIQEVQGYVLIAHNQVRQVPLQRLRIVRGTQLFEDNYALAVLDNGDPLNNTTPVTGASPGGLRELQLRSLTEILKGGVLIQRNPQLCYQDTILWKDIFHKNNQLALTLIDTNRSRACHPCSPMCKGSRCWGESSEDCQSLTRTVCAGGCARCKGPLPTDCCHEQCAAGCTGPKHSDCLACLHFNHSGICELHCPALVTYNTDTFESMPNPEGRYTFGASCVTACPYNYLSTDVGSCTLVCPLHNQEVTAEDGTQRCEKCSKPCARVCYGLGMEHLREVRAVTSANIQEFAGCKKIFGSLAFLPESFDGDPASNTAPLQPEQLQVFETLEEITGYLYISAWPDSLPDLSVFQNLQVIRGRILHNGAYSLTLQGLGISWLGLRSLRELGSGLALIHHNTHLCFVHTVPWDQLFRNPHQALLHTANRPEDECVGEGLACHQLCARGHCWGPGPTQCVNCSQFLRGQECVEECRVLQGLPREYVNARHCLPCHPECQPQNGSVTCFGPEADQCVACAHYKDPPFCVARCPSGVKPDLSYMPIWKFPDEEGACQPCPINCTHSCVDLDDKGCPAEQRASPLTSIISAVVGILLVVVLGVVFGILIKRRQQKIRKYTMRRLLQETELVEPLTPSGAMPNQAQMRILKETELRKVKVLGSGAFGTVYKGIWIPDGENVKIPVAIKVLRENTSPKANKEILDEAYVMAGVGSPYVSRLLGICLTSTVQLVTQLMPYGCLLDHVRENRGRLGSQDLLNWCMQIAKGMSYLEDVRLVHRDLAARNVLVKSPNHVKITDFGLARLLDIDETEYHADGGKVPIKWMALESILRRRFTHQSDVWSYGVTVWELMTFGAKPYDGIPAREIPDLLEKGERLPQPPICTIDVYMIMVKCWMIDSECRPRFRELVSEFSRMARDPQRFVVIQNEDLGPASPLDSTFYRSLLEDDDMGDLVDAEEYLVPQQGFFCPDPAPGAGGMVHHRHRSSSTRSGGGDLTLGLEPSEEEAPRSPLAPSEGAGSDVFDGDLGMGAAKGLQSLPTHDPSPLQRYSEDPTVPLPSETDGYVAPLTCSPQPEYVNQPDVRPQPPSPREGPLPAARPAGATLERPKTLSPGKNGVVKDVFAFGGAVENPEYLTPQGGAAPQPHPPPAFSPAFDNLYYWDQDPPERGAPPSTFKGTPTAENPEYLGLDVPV
T1 sequence (P04626 23-1255): as above

COc1cc(O[C@H]2CCN(C)CC2(F)F)c2c(Nc3ccc(Oc4ccn5ncnc5c4)c(C)c3)ncnc2c1 (single isomer, unassigned) [Compound 6]
Kp uu [1]: 4.1 | relationship between plasma concentration and pHER2 inhibition in tumor tissue (pHER2 in tumor tissue): positive correlation | anti-tumor activity compared to Tucatinib, Neratinib and Pyrotinib ([2]; BM and LM models): superior to Tucatinib, Neratinib and Pyrotinib | anti-tumor activity, monotherapy ([2]; BT474 SC, BM and LM xenograft models, 25-150 mg/kg): potent anti-tumor activity; also recorded: profound tumor regression | anti-tumor activity compared to Tucatinib, Neratinib and Pyrotinib ([2]; SC model): comparable to them | selectivity between pHER2 in cells expressing HER2 and pEGFR in cells expressing wild type EGFR (pHER2): over 300 fold | IC50 (pHER2; BT474c1 cell line): 4.4 nM | GI50 (BT474 cells): ~20 nM
